Structures are written as SMILES. Bounds are passed on as bounds.

Common to all, as to assay: Kinase assay, binding constants (Kd), kinase-tagged T7 phage, qPCR
For test [1], the target named is FGFR1 (Homo sapiens (Human), UniProt P11362). Put shortly: (§1)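 Kinase-tagged T7 phage (grown in BL21-derived E. coli) competed with test compound for immobilized biotinylated ligand on streptavidin beads. Kds came from an 11-point 3-fold dilution series at 0.9% final DMSO. Bound kinase was eluted with non-biotinylated ligand and quantified by qPCR, with Hill slope fixed at −1.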
FGFR1, sequence (P11362 22-822): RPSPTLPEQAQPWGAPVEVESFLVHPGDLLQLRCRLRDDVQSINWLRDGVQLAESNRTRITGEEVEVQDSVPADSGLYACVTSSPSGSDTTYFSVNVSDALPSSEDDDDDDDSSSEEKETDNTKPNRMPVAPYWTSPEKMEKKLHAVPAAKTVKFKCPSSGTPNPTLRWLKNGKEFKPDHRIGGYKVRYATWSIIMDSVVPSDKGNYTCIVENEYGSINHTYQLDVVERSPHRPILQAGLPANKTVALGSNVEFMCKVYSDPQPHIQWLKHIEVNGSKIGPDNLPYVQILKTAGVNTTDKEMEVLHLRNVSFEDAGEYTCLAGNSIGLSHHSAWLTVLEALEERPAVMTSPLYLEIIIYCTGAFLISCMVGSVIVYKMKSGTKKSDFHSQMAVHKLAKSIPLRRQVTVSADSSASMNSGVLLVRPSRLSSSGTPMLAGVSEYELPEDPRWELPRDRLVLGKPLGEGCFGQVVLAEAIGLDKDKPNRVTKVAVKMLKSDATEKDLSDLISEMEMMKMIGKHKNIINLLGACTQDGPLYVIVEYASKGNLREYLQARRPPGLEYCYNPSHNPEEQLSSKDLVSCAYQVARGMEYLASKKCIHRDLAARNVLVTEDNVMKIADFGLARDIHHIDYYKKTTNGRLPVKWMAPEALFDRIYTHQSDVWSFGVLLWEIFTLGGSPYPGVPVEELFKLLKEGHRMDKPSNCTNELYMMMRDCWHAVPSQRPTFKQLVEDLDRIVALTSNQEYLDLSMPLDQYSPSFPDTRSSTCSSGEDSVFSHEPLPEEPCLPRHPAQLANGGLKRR

For test [2], the target named is FGFR2 (Homo sapiens (Human), UniProt P21802). The essentials: as §1
FGFR2, sequence (P21802 22-821): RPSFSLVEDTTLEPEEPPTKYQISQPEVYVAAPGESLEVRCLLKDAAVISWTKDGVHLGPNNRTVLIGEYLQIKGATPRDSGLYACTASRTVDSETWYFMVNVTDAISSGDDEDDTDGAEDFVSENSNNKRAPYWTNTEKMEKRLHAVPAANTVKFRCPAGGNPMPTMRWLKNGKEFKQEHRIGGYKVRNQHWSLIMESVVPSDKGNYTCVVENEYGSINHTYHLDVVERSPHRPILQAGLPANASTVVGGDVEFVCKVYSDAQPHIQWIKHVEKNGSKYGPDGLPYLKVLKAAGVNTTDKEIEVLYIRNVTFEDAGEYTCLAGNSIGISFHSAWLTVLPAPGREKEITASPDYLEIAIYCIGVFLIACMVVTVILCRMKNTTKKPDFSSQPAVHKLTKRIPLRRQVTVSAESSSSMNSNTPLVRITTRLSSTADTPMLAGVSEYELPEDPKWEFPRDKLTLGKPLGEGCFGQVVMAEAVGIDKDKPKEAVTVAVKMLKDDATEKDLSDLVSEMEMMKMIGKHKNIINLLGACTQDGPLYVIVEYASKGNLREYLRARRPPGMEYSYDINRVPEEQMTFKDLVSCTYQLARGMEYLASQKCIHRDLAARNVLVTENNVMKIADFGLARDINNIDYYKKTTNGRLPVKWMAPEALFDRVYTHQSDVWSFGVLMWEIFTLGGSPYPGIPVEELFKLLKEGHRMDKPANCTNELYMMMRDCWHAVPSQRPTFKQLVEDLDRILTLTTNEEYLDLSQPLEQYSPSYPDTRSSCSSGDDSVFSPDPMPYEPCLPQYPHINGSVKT
Test [3] concerns the target FGFR3 (Homo sapiens (Human), UniProt P22607). Put shortly: as §1
Test [4] deals with FGFR3 (V555M) (Homo sapiens (Human), UniProt P22607, V555M). To be noted: V555M mutant. Put shortly:
as §1

Test [5] addresses FGFR4 (Homo sapiens (Human), UniProt P22455). Put shortly:
as §1

FGFR4, sequence (P22455 22-802): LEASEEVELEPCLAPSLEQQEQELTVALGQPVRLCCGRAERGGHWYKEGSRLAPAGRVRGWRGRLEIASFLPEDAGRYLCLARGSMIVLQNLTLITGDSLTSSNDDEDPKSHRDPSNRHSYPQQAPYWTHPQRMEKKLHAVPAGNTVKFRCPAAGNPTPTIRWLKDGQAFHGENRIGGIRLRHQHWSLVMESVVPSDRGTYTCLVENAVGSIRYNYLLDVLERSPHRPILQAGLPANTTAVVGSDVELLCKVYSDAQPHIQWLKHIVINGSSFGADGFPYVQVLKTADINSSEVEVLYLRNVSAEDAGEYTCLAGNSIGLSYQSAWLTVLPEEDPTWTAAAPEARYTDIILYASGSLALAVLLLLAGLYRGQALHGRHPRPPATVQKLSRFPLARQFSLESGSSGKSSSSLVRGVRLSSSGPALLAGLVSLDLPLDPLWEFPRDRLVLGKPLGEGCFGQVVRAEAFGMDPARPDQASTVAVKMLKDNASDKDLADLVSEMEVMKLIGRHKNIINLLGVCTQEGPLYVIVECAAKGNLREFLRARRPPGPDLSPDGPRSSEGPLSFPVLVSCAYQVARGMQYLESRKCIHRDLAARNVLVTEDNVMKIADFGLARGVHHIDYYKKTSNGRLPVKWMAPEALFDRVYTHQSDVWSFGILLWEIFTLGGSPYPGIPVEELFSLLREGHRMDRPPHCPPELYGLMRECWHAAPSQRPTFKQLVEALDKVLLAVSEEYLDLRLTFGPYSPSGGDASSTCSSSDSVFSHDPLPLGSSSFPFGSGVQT
FGFR3 (V555M), sequence (P22607 23-806 V555M): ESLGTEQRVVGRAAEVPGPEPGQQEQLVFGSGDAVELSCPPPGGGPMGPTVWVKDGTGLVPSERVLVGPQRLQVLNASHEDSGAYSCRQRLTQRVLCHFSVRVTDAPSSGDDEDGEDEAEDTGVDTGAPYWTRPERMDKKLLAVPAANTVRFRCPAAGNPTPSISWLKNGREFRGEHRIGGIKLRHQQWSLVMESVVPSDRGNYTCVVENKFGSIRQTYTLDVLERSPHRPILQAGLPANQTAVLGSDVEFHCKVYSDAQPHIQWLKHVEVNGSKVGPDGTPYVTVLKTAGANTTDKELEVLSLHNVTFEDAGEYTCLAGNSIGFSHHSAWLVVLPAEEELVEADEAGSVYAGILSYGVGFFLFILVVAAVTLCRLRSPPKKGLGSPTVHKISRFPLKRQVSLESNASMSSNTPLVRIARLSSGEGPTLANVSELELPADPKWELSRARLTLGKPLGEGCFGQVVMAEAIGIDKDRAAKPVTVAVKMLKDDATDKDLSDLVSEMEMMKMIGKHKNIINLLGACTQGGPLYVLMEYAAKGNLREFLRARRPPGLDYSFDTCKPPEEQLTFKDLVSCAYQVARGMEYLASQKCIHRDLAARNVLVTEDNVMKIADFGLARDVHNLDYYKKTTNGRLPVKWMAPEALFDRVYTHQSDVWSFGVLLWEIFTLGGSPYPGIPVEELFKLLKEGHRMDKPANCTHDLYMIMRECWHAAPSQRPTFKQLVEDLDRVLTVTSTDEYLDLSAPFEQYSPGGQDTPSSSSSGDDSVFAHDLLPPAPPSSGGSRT
FGFR3, sequence (P22607 23-806): as the sequence (P22607 23-806 V555M) above, with M533V counted along it

As usually defined, the Kd is the constant that tells how readily two partners part at equilibrium. Low readings indicate a tighter complex, high ones a looser complex. For the compound `COc1cc2[nH]nc(-c3ccc(N4CC5(C4)CN(S(C)(=O)=O)C5)nc3)c2cc1O[C@H](C)c1c(Cl)cncc1Cl` [Example 191, 5-[(1R)-1-(3,5-dichloro-4-pyridyl)ethoxy]-6-methoxy-3-[6-(2-methylsulfonyl-2,6-diazaspiro[3.3]heptan-6-yl)-3-pyridyl]-1H-indazole], the Kd in test [1], in test [2], in test [3], in test [4] and in test [5] was 1 to 20 nM in each case.
Turning to `COc1cc2[nH]nc(-c3ccc(N4CC5(C4)CN(S(C)(=O)=O)C5)nc3)c2cc1O[C@@H](C)c1c(C)cnnc1C` [Example 192, 5-[(1S)-1-(3,5-dimethylpyridazin-4-yl)ethoxy]-6-methoxy-3-[6-(2-methylsulfonyl-2,6-diazaspiro[3.3]heptan-6-yl)-3-pyridyl]-1H-indazole], the Kd in test [1] lay within 100 to 300 nM; in test [2], 20 to 100 nM; in test [3], 1 to 20 nM; in test [4], 1 to 20 nM; in test [5] it was 100 to 300 nM.
In the case of `CCOC(=O)N1CC2(C1)CN(c1ccc(-c3n[nH]c4ccc(O[C@@H](C)c5c(Cl)cnc(F)c5Cl)cc34)cn1)C2` [Example 193, Ethyl 6-[5-[5-[(1S)-1-(3,5-dichloro-2-fluoro-4-pyridyl)ethoxy]-1H-indazol-3-yl]-2-pyridyl]-2,6-diazaspiro[3.3]heptane-2-carboxylate], the Kd is over 300 nM in test [1]; over 300 nM in test [2]; over 300 nM in test [3]; 100 to 300 nM in test [4]; over 300 nM in test [5].
`COc1cc2[nH]nc(-c3ccc(N4CC5(C4)CN(S(C)(=O)=O)C5)nc3)c2cc1O[C@H](C)c1c(C)cnnc1C` [Example 194, 5-[(1R)-1-(3,5-dimethylpyridazin-4-yl)ethoxy]-6-methoxy-3-[6-(2-methylsulfonyl-2,6-diazaspiro[3.3]heptan-6-yl)-3-pyridyl]-1H-indazole]: the Kd in test [1], in test [2], in test [3], in test [4] and in test [5] was 1 to 20 nM in each case.
Consider `COC(=O)N1CC2(C1)CN(c1ccc(-c3n[nH]c4ccc(O[C@H](C)c5c(Cl)cnc(F)c5Cl)cc34)cn1)C2` [Example 195, methyl 6-[5-[5-[(1R)-1-(3,5-dichloro-2-fluoro-4-pyridyl)ethoxy]-1H-indazol-3-yl]-2-pyridyl]-2,6-diazaspiro[3.3]heptane-2-carboxylate], for which the dissociation constant Kd in test [1] is 100 to 300 nM; in test [2] it was 20 to 100 nM; in test [3] it was 1 to 20 nM; in test [4] it was 1 to 20 nM; in test [5], 20 to 100 nM.
Consider `CCOC(=O)N1CC2(C1)CN(c1ccc(-c3n[nH]c4ccc(O[C@H](C)c5c(Cl)cnc(F)c5Cl)cc34)cn1)C2` [Example 196, ethyl 6-[5-[5-[(1R)-1-(3,5-dichloro-2-fluoro-4-pyridyl)ethoxy]-1H-indazol-3-yl]-2-pyridyl]-2,6-diazaspiro[3.3]heptane-2-carboxylate], for which the dissociation constant (Kd) in test [1] lay within 100 to 300 nM; in test [2], 100 to 300 nM; in test [3], 1 to 20 nM; in test [4], 1 to 20 nM; in test [5], 20 to 100 nM.
Take `C[C@@H](Oc1ccc2[nH]nc(-c3ccc(N4CC5(C4)CN(S(C)(=O)=O)C5)nc3)c2c1)c1c(Cl)cnc(F)c1Cl` [Example 197, 5-[(1R)-1-(3,5-dichloro-2-fluoro-4-pyridyl)ethoxy]-3-[6-(2-methylsulfonyl-2,6-diazaspiro[3.3]heptan-6-yl)-3-pyridyl]-1H-indazole]: the Kd in test [1] is 20 to 100 nM; in test [2] it was 20 to 100 nM; in test [3] it was 1 to 20 nM; in test [4], 1 to 20 nM; in test [5] it was 1 to 20 nM.
As for `COC(=O)N1CC2(C1)CN(c1ccc(-c3n[nH]c4ccc(O[C@@H](C)c5c(Cl)cnc(F)c5Cl)cc34)cn1)C2` [Example 198, methyl 6-[5-[5-[(1S)-1-(3,5-dichloro-2-fluoro-4-pyridyl)ethoxy]-1H-indazol-3-yl]-2-pyridyl]-2,6-diazaspiro[3.3]heptane-2-carboxylate], the dissociation constant (Kd) in test [1] was over 300 nM; in test [2], over 300 nM; in test [3], 100 to 300 nM; in test [4] it was 20 to 100 nM; in test [5] it was over 300 nM.
Turning to `C[C@H](Oc1ccc2[nH]nc(-c3ccc(N4CC5(C4)CN(S(C)(=O)=O)C5)nc3)c2c1)c1c(Cl)cnc(F)c1Cl` [Example 199, 5-[(1S)-1-(3,5-dichloro-2-fluoro-4-pyridyl)ethoxy]-3-[6-(2-methylsulfonyl-2,6-diazaspiro[3.3]heptan-6-yl)-3-pyridyl]-1H-indazole], the Kd is over 300 nM in test [1]; over 300 nM in test [2]; 100 to 300 nM in test [3]; 20 to 100 nM in test [4]; over 300 nM in test [5].
For `COc1c(O[C@H](C)c2c(C)cnnc2C)ccc2[nH]nc(-c3ccc(N4CC5(C4)CN(S(C)(=O)=O)C5)nc3)c12` [Example 200, 5-[(1R)-1-(3,5-dimethylpyridazin-4-yl)ethoxy]-4-methoxy-3-[6-(2-methylsulfonyl-2,6-diazaspiro[3.3]heptan-6-yl)-3-pyridyl]-1H-indazole], the Kd is over 300 nM in test [1]; over 300 nM in test [2]; over 300 nM in test [3]; 100 to 300 nM in test [4]; over 300 nM in test [5].
`Cc1ncc(Cl)c([C@@H](C)Oc2ccc3[nH]nc(-c4ccc(N5CC6(COC6)C5)nc4)c3c2)c1Cl` [Example 201, 6-[5-[5-[(1R)-1-(3,5-dichloro-2-methyl-4-pyridyl)ethoxy]-1H-indazol-3-yl]-2-pyridyl]-2-oxa-6-azaspiro[3.3]heptane]: the equilibrium dissociation constant (Kd) in test [1] is 20 to 100 nM; in test [2], 1 to 20 nM; in test [3], 1 to 20 nM; in test [4], 1 to 20 nM; in test [5] it was 1 to 20 nM.
`COc1cc2[nH]nc(-c3ccc(N4CC5(COC5)C4)nc3)c2cc1O[C@H](C)c1c(C)cnnc1C` [Example 202, 6-[5-[5-[(1R)-1-(3,5-dimethylpyridazin-4-yl)ethoxy]-6-methoxy-1H-indazol-3-yl]-2-pyridyl]-2-oxa-6-azaspiro[3.3]heptane]: the Kd in test [1], in test [2], in test [3], in test [4] and in test [5] was 1 to 20 nM throughout.
With `C[C@@H](Oc1ccc2[nH]nc(-c3ccc(N4CC5(COC5)C4)nc3)c2c1)c1c(Cl)cnc(F)c1Cl` [Example 203, 6-[5-[5-[(1R)-1-(3,5-dichloro-2-fluoro-4-pyridyl)ethoxy]-1H-indazol-3-yl]-2-pyridyl]-2-oxa-6-azaspiro[3.3]heptane], the dissociation constant (Kd) was in the range of 20 to 100 nM in test [1]; 1 to 20 nM in test [2]; 1 to 20 nM in test [3]; 1 to 20 nM in test [4]; 1 to 20 nM in test [5].
Consider `C[C@@H](Oc1ccc2[nH]nc(-c3ccc(N4CC5(CCOC5)C4)nc3)c2c1)c1c(Cl)cnc(F)c1Cl` [Example 204, (R)-2-(5-(5-(1-(3,5-dichloro-2-fluoropyridin-4-yl)ethoxy)-1H-indazol-3-yl)pyridin-2-yl)-6-oxa-2-azaspiro[3.4]octane], for which the Kd in test [1] was 20 to 100 nM; in test [2], 1 to 20 nM; in test [3], 1 to 20 nM; in test [4], 1 to 20 nM; in test [5], 20 to 100 nM.
`Cc1cnnc(C)c1[C@@H](C)Oc1ccc2[nH]nc(-c3ccc(N4CC5(COC5)C4)nc3)c2c1` [Example 205, 6-[5-[5-[(1R)-1-(3,5-dimethylpyridazin-4-yl)ethoxy]-1H-indazol-3-yl]-2-pyridyl]-2-oxa-6-azaspiro[3.3]heptane]: the Kd in test [1], in test [2], in test [3], in test [4] and in test [5] was 1 to 20 nM throughout.
Regarding `Cc1cnnc(C)c1[C@@H](C)Oc1ccc2[nH]nc(-c3ccc(N4CC5(CCOC5)C4)nc3)c2c1` [Example 206, (R)-2-(5-(5-(1-(3,5-dimethylpyridazin-4-yl)ethoxy)-1H-indazol-3-yl)pyridin-2-yl)-6-oxa-2-azaspiro[3.4]octane], the Kd in test [1], in test [2], in test [3], in test [4] and in test [5] was 1 to 20 nM in each case.
For the compound `COc1cc2[nH]nc(-c3ccc(N4CC5(C4)CN(S(C)(=O)=O)C5)nc3)c2cc1O[C@H](C)c1c(Cl)cnc(C)c1Cl` [Example 207, 5-[(1R)-1-(3,5-dichloro-2-methyl-4-pyridyl)ethoxy]-6-methoxy-3-[6-(2-methylsulfonyl-2,6-diazaspiro[3.3]heptan-6-yl)-3-pyridyl]-1H-indazole], the Kd in test [1], in test [2], in test [3], in test [4] and in test [5] was 1 to 20 nM in each case.
On to `COc1cc2[nH]nc(-c3ccc(N4CC(O)C4)nc3)c2cc1O[C@H](C)c1c(Cl)cnc(C)c1Cl` [Example 208, 1-[5-[5-[(1R)-1-(3,5-dichloro-2-methyl-4-pyridyl)ethoxy]-6-methoxy-1H-indazol-3-yl]-2-pyridyl]azetidin-3-ol], for which the Kd in test [1] lay in the range of 20 to 100 nM; in test [2], 1 to 20 nM; in test [3], 1 to 20 nM; in test [4] it was 1 to 20 nM; in test [5], 1 to 20 nM.
Consider `COC1(C)CN(c2ccc(-c3n[nH]c4ccc(O[C@H](C)c5c(Cl)cnc(C)c5Cl)cc34)cn2)C1` [Example 210, 5-[(1R)-1-(3,5-dichloro-2-methyl-4-pyridyl)ethoxy]-3-[6-(3-methoxy-3-methyl-azetidin-1-yl)-3-pyridyl]-1H-indazole], for which the Kd in test [1] fell in the range of 20 to 100 nM; in test [2], 1 to 20 nM; in test [3], 1 to 20 nM; in test [4], 1 to 20 nM; in test [5], 1 to 20 nM.
